Test results reported in patent US8278312B2, “Imidazo 1,2-a pyrimidine derivatives for the treatment of diseases such as diabetes” (Merck Patent Gesellschaft mit Beschränkter Haftung, priority 2007, dated 2012).

Tests used:
[1] = target: T1, SGLT2 (Homo sapiens, UniProt P31639); experiment: 14C-AMG uptake in BHK cells transfected with SGLT2 (96-well cell-based assay); settings: 2 mM AMG, 37° C., 90 min
T1 construct: expressed in transfected cells
T1 sequence (P31639 1-672): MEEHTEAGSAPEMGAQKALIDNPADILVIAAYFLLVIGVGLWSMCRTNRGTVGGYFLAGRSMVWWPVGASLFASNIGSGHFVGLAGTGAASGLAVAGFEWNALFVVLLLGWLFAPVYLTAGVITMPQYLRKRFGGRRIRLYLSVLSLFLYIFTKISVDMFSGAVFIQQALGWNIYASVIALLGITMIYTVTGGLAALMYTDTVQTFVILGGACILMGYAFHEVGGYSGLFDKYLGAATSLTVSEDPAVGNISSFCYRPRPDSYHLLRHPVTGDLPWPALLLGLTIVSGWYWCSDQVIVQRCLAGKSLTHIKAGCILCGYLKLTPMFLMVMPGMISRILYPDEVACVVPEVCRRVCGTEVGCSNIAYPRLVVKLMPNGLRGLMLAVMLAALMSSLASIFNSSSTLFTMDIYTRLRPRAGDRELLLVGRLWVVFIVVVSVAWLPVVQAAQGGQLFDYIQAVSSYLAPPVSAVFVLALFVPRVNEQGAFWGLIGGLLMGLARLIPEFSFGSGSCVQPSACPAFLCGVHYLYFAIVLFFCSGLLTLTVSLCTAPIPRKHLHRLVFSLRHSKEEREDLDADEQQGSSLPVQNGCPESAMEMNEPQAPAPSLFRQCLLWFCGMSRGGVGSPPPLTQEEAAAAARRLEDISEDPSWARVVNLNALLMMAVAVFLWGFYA
Description: (§1) The compounds can be tested for their SGLT inhibition properties by means of BHK cells expressing SGLT1 and SGLT2. The production of the cells and the testing can be carried out as described below.
To construct the SGLT2 expression vector (KL224), the SLC5A2 gene (homologous to NM_003041) was amplified from a cDNA library using standard PCR technology and cloned over NheI/XhoI sites into PCI-neo expression vector (Promega) containing neomycin as a selection marker. In this vector, transcription uses the enhancer/promoter of human cytomegalovirus and the SV40 polyadenylation signal.
(§2) The final vector KL224 together with an additional vector containing a dihydrofolate reductase gene as a selection marker was introduced into cells. Transfection into BHK21 cells (ATCC CCL-10), cultivated in DMEM medium (GIBCO/BRL), supplemented with 10% foetal calf serum (FCS) and 20 mM glutamine, was carried out using calcium phosphate transfections according to Graham, F. L. and van der Ebb, A. J. (1973), Virology 52: 456 with 5-20 μg of uncut plasmids for 10^7 cells. Stable transfectants were selected in medium containing 1 mg/ml of G418 (GIBCO/BRL) and 20-5000 nM methotrexate as final concentration, where only cells which expressed the neomycin gene and overexpressed the dhfr gene were able to grow. After growth for 2-3 weeks, the cells were cloned (0.5 cells/well) and the clones were investigated for SGLT expression in radioactivity uptake tests. […]
(§3) A 96-well cell-based assay was developed and adapted to HTS requirements:
(§4) BHK cells (transfected with SGLT1 or SGLT2) were seeded into 96-well microtitre plates (Cultureplates, Perkin Elmer). After at least 24 h, medium was removed, and the cell layer was washed with assay buffer (140 mM NaCl, 2 mM KCl, 1 mM CaCl2, 1 mM MgCl2, 10 mM HEPES, 5 mM Tris, adjusted to pH 7.4 using 1 M KOH). After addition of 40 μl of assay buffer, 50 μl of AMG (50 μM for SGLT1 and 2 mM for SGLT2) in the presence or absence of compounds, the cells were incubated in a total volume of 100 μl at 37° C. for 90 min. Supernatant was removed by suction and discarded. Cells were washed and lysed by addition of 50 μl of water. After 10 min at room temperature, 200 μl of Micrsoscint 40 (Perkin Elmer) were added. The radioactivity was counted in a Topcount microplate scintillation counter (Perkin Elmer). The non-specific uptake was determined in sodium-free assay buffer (266 mM sucrose, 2 mM KCl, 1 mM CaCl2, 1 mM MgCl2, 10 mM HEPES, 5 mM Tris, adjusted to pH 7.4 using 1 M KOH).

[2] = target: T2, SGLT1 (Homo sapiens, UniProt P13866); experiment: 14C-AMG uptake in BHK cells transfected with SGLT1 (96-well cell-based assay); settings: 50 μM AMG, 37° C., 90 min
T2 construct: expressed in transfected cells
T2 sequence (P13866 1-664): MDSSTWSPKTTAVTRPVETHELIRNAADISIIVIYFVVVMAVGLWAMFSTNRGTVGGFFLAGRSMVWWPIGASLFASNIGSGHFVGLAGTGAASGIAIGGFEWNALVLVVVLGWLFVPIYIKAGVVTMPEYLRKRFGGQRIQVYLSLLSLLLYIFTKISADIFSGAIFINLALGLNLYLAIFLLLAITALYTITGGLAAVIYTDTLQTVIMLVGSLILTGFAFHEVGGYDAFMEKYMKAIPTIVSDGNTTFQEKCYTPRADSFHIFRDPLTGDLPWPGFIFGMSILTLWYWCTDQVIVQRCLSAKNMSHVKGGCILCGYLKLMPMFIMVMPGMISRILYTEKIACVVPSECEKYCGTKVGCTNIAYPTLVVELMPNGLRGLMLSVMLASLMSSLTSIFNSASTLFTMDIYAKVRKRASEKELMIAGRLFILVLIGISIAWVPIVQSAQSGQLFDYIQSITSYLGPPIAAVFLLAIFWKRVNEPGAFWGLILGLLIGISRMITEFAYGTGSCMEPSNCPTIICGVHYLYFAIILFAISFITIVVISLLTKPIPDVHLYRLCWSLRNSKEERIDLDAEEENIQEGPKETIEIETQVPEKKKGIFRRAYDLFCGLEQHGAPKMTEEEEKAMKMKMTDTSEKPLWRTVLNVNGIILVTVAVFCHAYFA
Description: as §1
To construct the SGLT1 expression vector (KL225), the SLC5A1 gene (homologous to NM_000343) was amplified from a cDNA library using standard PCR technology and cloned over NheI/XhoI sites into the pcDNA3.1 expression vector (Invitrogen) containing neomycin as a selection marker. In this vector, transcription uses the enhancer/promoter of human cytomegalovirus.
as §2, with “KL225” for “KL224”
as §3, §4

Compound | IC50 [1] [nM] | IC50 [2] [nM]
CNc1nnc(-c2cc(OC)ccc2-c2nc3ncccn3c2Nc2c(C)cccc2C)o1 [Compound A21, (2,6-Dimethylphenyl)-{2-[4-methoxy-2-(5-methylamino-1,3,4-oxadiazol-2-yl)-phenyl]imidazo[1,2-a]pyrimidin-3-yl}-amine] | 10 to 1000 | > 10000
CNc1nnc(-c2cccc(Cl)c2-c2nc3ncccn3c2Nc2c(C)cccc2Cl)o1 [Compound A22, {2-[2-Chloro-6-(5-methylamino-1,3,4-oxadiazol-2-yl)phenyl]imidazo[1,2-a]-pyrimidin-3-yl}-(2-chloro-6-methylphenyl)-amine] | 10 to 1000 | 10 to 1000
CNc1nnc(-c2cc(OC)cc(OC)c2-c2nc3ncccn3c2Nc2c(Cl)ccc(C)c2Cl)o1 [Compound A23, (2,6-Dichloro-3-methylphenyl)-{2-[2,4-dimethoxy-6-(5-methylamino-1,3,4-oxadiazol-2-yl)phenyl]imidazo[1,2-a]-pyrimidin-3-yl}amine] | 10 to 1000 | 10 to 1000
CCNC(=O)c1cc(OC)cc(OC)c1-c1nc2ncccn2c1Nc1c(Cl)ccc(C)c1Cl [Compound A24, 2-[3-(2,6-dichloro-3-methylphenylamino)imidazo[1,2-a]-pyrimidin-2-yl]-N-ethyl-3,5-dimethoxybenzamide] | 10 to 1000 | 10 to 1000
CNc1nnc(-c2ccccc2-c2nc3ncccn3c2Nc2c(C)noc2C)o1 [Compound A25, (3,5-Dimethylisoxazol-4-yl)-{2-[2-(5-methylamino-1,3,4-oxadiazol-2-yl)-phenyl]imidazo[1,2-a]pyrimidin-3-yl}-amine] | > 10000 | > 10000
CNc1nnc(-c2cccc(F)c2-c2nc3ncccn3c2Nc2c(C)cccc2Cl)o1 [Compound A26, (2-Chloro-6-methylphenyl)-{2-[2-fluoro-6-(5-methylamino-1,3,4-oxadiazol-2-yl)-phenyl]imidazo[1,2-a]pyrimidin-3-yl}-amine] | 10 to 1000 | 1000 to 10000
CNc1nnc(-c2cccc(F)c2-c2nc3ncccn3c2Nc2c(C)cc(F)cc2C)o1 [Compound A27, (4-Fluoro-2,6-dimethylphenyl)-{2-[2-fluoro-6-(5-methylamino-1,3,4-oxadiazol-2-yl)phenyl]imidazo[1,2-a]pyrimidin-3-yl}-amine] | 10 to 1000 | 1000 to 10000
(2,6-Dichlorophenyl)-{2-[2-(5-methyl-amino-1,3,4-oxadiazol-2-yl)phenyl]-imidazo[1,2-a]pyrimidin-3-yl}amine [Compound A14] | 10 to 1000 | 1000 to 10000
